Assays:
Settings in all cases: incubation time: 72 h
HCC1937 [1] = assay: drug sensitivity score (DSS), CellTiter-Blue viability (DSS (AUC-based score)); higher = stronger viability inhibition; extreme values may be limits of the assay
Procedure: (§1)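 DSRT with the CellTiter-Blue (resazurin reduction) viability readout, fluorescence 560/590 nm, 72 h incubation. Plates were normalised to DMSO and benzethonium chloride controls. DSS is computed from the area under the fitted dose-response curve (5 or 9 concentrations).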

BT-549 [2] = assay: as above
Procedure: as §1

MDA-MB-436 [3] = assay: as above
Procedure: as §1

CAL-51 [4] = assay: as above
Procedure: as §1

HCC1143 [5] = assay: as above
Procedure: as §1

MDA-MB-231 [6] = assay: as above
Procedure: as §1

BT-474 [7] = assay: as above
Procedure: as §1

BT-549 [8] = assay: drug sensitivity score (DSS), CellTox Green (DSS (AUC-based score)); higher = stronger drug effect (viability inhibition or cytotoxicity); extreme values may be limits of the assay
Outline: (§2)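 The area under the fitted dose-response curve was used to calculate the drug sensitivity score. Cells from breast cancer lines were incubated for 72 h in 384-well plates with compound at 5 concentrations spaced 10-fold over a 10,000-fold range specific to each compound. Plates were read for CellTox Green and then CellTiter-Glo, and normalised to 0.1 % DMSO and a positive kill control.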

CAL-148 = assay: as above
Outline: as §2

MCF-10A = assay: as above
Outline: as §2

MDA-MB-436 [9] = assay: as above
Outline: as §2

HCC1599 = assay: as above
Outline: as §2

CAL-51 [10] = assay: as above
Outline: as §2

HCC1143 [11] = assay: as above
Outline: as §2

DU-4475 = assay: as above
Outline: as §2

CAL-85-1 = assay: as above
Outline: as §2

HDQ-P1 = assay: as above
Outline: as §2

BT-474 [12] = assay: as above
Outline: as §2

MDA-MB-468 = assay: as above
Outline: as §2

CAL-120 = assay: as above
Outline: as §2

Hs578T = assay: as above
Outline: as §2

MDA-MB-453 = assay: as above
Outline: as §2

MFM-223 = assay: as above
Outline: as §2

HCC1937 [13] = assay: as above
Outline: as §2

MDA-MB-231 [14] = assay: as above
Outline: as §2

| SMILES | drug sensitivity score (HCC1937 [1]) | drug sensitivity score (BT-549 [2]) | drug sensitivity score (MDA-MB-436 [3]) | drug sensitivity score (CAL-51 [4]) | drug sensitivity score (HCC1143 [5]) | drug sensitivity score (MDA-MB-231 [6]) | drug sensitivity score (BT-474 [7]) | drug sensitivity score (BT-549 [8]) | drug sensitivity score (CAL-148) | drug sensitivity score (MCF-10A) | drug sensitivity score (MDA-MB-436 [9]) | drug sensitivity score (HCC1599) | drug sensitivity score (CAL-51 [10]) | drug sensitivity score (HCC1143 [11]) | drug sensitivity score (DU-4475) | drug sensitivity score (CAL-85-1) | drug sensitivity score (HDQ-P1) | drug sensitivity score (BT-474 [12]) | drug sensitivity score (MDA-MB-468) | drug sensitivity score (CAL-120) | drug sensitivity score (Hs578T) | drug sensitivity score (MDA-MB-453) | drug sensitivity score (MFM-223) | drug sensitivity score (HCC1937 [13]) | drug sensitivity score (MDA-MB-231 [14]) |
| --- | --- | --- | --- | --- | --- | --- | --- | --- | --- | --- | --- | --- | --- | --- | --- | --- | --- | --- | --- | --- | --- | --- | --- | --- | --- |
| Cn1cnc2c(F)c(Nc3ccc(Br)cc3F)c(C(=O)NOCCO)cc21 [MEK-162] | 0 | 0 | 0 | 0.246 | 7.86 | 4.22 | 0 | 0 | 1.61 | 0 | 0 | 0 | 0 | 0 | 1.92 | 0 | 1.87 | 0 | 0 | 0 | 0 | 0 | 3.03 | – | – |
| FC(F)c1nc2ccccc2n1-c1nc(N2CCOCC2)nc(N2CCOCC2)n1 [ZSTK474] | – | – | – | – | – | – | – | 0 | 0 | 0 | 0 | 0 | 0 | 0 | 0 | 0 | 0 | 0.64 | 0 | 0 | 0 | 0 | 3.44 | 0 | 0 |
| c1ccc(C2CN3CCSC3=N2)cc1 (stereo unspecified) [Tetramisole] | 0 | 0 | 0 | 0 | 0 | 0 | 0 | – | – | – | – | – | – | – | – | – | – | – | – | – | – | – | – | – | – |
| CCS(=O)(=O)c1cccc(-c2cc(C(=O)NC3CCN(C)CC3)c(C)c3[nH]c4ncc(C)cc4c23)c1 [TAK-901] | 6.44 | 8.46 | 1.92 | 8.9 | 8.44 | 9 | 0 | 0.958 | 0 | 0 | 0 | 0 | – | 0 | 0 | 0 | 0 | 0 | 0 | 0 | 0 | 0 | 0 | 0 | 3.45 |
| O=P(O)(NCCCl)NCCCl [Ifosfamide mustard] | 0 | 0 | 0 | 0 | 0 | 0 | 0 | – | – | – | – | – | – | – | – | – | – | – | – | – | – | – | – | – | – |
| COc1cc(Nc2ncc(F)c(Nc3ccc4c(n3)NC(=O)C(C)(C)O4)n2)cc(OC)c1OC [Tamatinib] | – | – | – | – | – | – | – | 0 | 0 | 0 | 0 | 0 | 1.13 | 0 | 0 | 0 | 0 | 0 | – | 0 | 0 | 0 | 0 | 0 | 0 |
| CC(C)(C)c1cc(NC(=O)Nc2ccc(-c3cn4c(n3)sc3cc(OCCN5CCOCC5)ccc34)cc2)no1 [Quizartinib] | 0 | 3.75 | 0 | 0 | 0 | 0 | 0 | 0 | 0 | 0 | – | 0 | 0 | 0 | 0 | 0 | 0 | 0 | 0 | 0 | 3.83 | 0 | 0 | 0 | 0 |
| COc1cc(Nc2ncc(F)c(Nc3ccc4c(n3)NC(=O)C(C)(C)O4)n2)cc(OC)c1OC [R406] | 0 | 5.38 | 0 | 0 | 0 | 5.44 | 0 | – | – | – | – | – | – | – | – | – | – | – | – | – | – | – | – | – | – |
| O=c1[nH]c(=O)n([C@H]2C[C@H](O)[C@@H](CO)O2)cc1F [Floxuridine] | 3.61 | 6.97 | 10.6 | 21.3 | 3.31 | 8.09 | 0 | 0 | 0 | 0 | 0 | 0 | 5.94 | 0 | 0 | 4.11 | 1.01 | 0 | 0 | 0 | 0 | 0 | – | 0 | 0 |
